Results as given in US9326503B2, “Biocide compositions comprising branched alkyl polyglycosides” (Cognis IP Management GmbH, priority 2009, dated 2016).

What was measured:
Asian Soybean Rust = assay: Field trial in Brazil: soybean crop yield under Asian Soybean Rust, fungicide with or without adjuvant; format: in vivo; details: where added, 150 ml/ha
Protocol: Field trials were conducted in Brazil. Two standard biocide compositions from the market were applied to soybean crops: OPERA® (BASF) contains 5% w/w epoxiconazole and 13.3% w/w pyraclostrobin, the former is a preventive and curative fungicide, the latter a protectant, curative, and translaminar fungicide. FOLICUR® (Bayer CropScience) contains tebuconazole, a fungicide with protective, curative, and eradicant properties. The two compositions were applied at full recommended rate and at a 50% level. These experiments are compared to similar treatment of the plants adding in both cases adjuvant mixtures at a concentration of 150 ml/ha.

[1] = system: barnyard grass and green foxtail; assay: Uptake of radio-labelled nicosulfuron with adjuvant, compared with crop oil concentrate; format: in vivo; details: adjuvant rate giving the same nicosulfuron uptake as COC (uptake with COC set to 100%); nicosulfuron (ACCENT WDG 75) 0.031% w/v
Protocol: A separate study was undertaken to compare the performance of the invented composition compared with an industry standard, more particularly a crop oil concentrate (COC), on the uptake of nicosulfuron on barnyard grass and green foxtail. Nicosulfuron as ACCENT® WDG 75 was used at 0.031% w/v (46.7 g active ingredient/150 l/ha). Radio-labelled nicosulfuron (50 mCi/mmol) was added to freshly prepared treatment solution 0.5 h prior to use. The ^14C nicosulfuron comprised 7% by mass. Spray solutions with nicosulfuron alone i.e. without adjuvant, were formulated in 50% acetone. All additives were used at the same concentration. The uptake using COC (Example C3) was set to 100%, therefore the data in Table 2, below, reflects the reduction in concentration of the other adjuvants in order to achieve the same level of uptake for COC. In other words, one can reduce the amount of adjuvant by 75-80% in order to achieve the same effects compared to the use of COC.

[2] = FOLICUR (tebuconazole) at full recommended rate
[3] = FOLICUR at 50% of the full recommended rate
[4] = OPERA (5% epoxiconazole, 13.3% pyraclostrobin) at full recommended rate
[5] = OPERA at 50% of the full recommended rate

Substance | Soybean Crop Yield influenced by Asian Soybean Rust - relative to control (=100), FOLICUR (Asian Soybean Rust; [2]) | Soybean Crop Yield influenced by Asian Soybean Rust - relative to control (=100), FOLICUR (Asian Soybean Rust; [3]) | Soybean Crop Yield influenced by Asian Soybean Rust - relative to control (=100), OPERA (Asian Soybean Rust; [4]) | Soybean Crop Yield influenced by Asian Soybean Rust - relative to control (=100), OPERA (Asian Soybean Rust; [5]) | Adjuvant rate [1] [% v/v]
2-Octyldodecyl polyglucoside (DP 1.7) [Example 1] | 141 | 161 | 161 | 137 | 0.24
Cetearyl polyglucoside (DP 1.5) [C1, reference compound] | 127 | 149 | 150 | 129 | 0.19
Isostearyl polyglucoside (DP 1.5) [Example 2] | 135 | 156 | 153 | 137 | 0.22
